Laboratory results published in patent EP4707280A1, “1,4-CINEOLE DERIVATIVE AND INTERMEDIATE THEREOF, HERBICIDE CONTAINING SAID DERIVATIVE AS ACTIVE INGREDIENT, METHOD FOR USING HERBICIDE, AND METHOD FOR PREPARING AGROCHEMICAL COMPOSITION” (HOKKO CHEMICAL INDUSTRY CO., LTD., priority 2023, dated 2024).

Key:
Type in all cases: in vivo
[1] = system: Digitaria ciliaris; assay: Test Example 3: herbicidal effect test by soil application in upland field; settings: 120 g per 10 ares, sprayed one day after sowing, 14 days after application; for inhibition at 1200 g/ha: Digitaria ciliaris, read-out: weed inhibition rate
In short: (§1)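 Weed inhibition (%) was assessed 14 days after treatment, in duplicate per concentration group. Seeds had been mixed into the upper 1 cm of upland alluvial loam, and the soil surface was sprayed one day later with the diluted emulsifiable concentrate at 120 g active ingredient per 10 ares.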

[2] = system: Echinochloa crus-galli; assay: as above; settings: 120 g per 10 ares, sprayed one day after sowing, 14 days after application; for inhibition at 1200 g/ha: Echinochloa crus-galli, read-out: weed inhibition rate
In short: as §1

[3] = system: Echinochloa crus-galli; assay: Test Example 4: herbicidal effect test by stem and leaf treatment in upland field; settings: 120 g per 10 ares, sprayed seven days after sowing, upland soil, 14 days after application; for inhibition at 1200 g/ha: Echinochloa crus-galli, read-out: weed inhibition rate
[4] = system: Echinochloa crus-galli var. formosensis; assay: Test Example 2: herbicidal effect test by application during growth period of paddy rice; settings: 120 g per 10 ares, applied seven days after sowing, flooded pots, 14 days after application; for inhibition at 1200 g/ha: Echinochloa crus-galli, read-out: weed inhibition rate
In short: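 Paddy soil in Wagner pots was puddled with N:P:K 16:16:16 fertilizer, sown with 30 weed seeds per species at 0–1 cm and flooded to about 3 cm. Seven days after sowing, a water-diluted emulsifiable concentrate was dropped onto the water at 120 g active ingredient per 10 ares. Weed inhibition (%) was scored at 14 days, in duplicate.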

[5] = system: Digitaria ciliaris; assay: Test Example 4: herbicidal effect test by stem and leaf treatment in upland field; settings: 120 g per 10 ares, sprayed seven days after sowing, upland soil, 14 days after application; for inhibition at 1200 g/ha: Digitaria ciliaris, read-out: weed inhibition rate
[6] = system: Echinochloa crus-galli var. formosensis; assay: Test Example 1: herbicidal effect test by soil application in paddy rice; settings: 120 g active ingredient per 10 ares, applied immediately after sowing, flooded pots, 14 days after application; for pest or weed control at 1200 g/ha: Echinochloa crus-galli, soil, 336 h, read-out: weed inhibition rate
In short: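 Treatment: 120 g active ingredient per 10 ares as a water-diluted emulsifiable concentrate, dropped onto flooded pots immediately after sowing. Thirty seeds per species went 0–1 cm into puddled paddy soil with 16:16:16 fertilizer, with ~3 cm flooding maintained in a glass greenhouse.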

[7] = system: Echinochloa crus-galli var. formosensis; assay: Test Example 5: herbicidal effect test by soil application in paddy rice (low dose); settings: Echinochloa crus-galli, soil, 336 h; 7.5 g per 10 ares; applied immediately after sowing, flooded pots; 14 days after application; read-out: weed inhibition rate
Description: The present test was conducted in duplicate for each chemical concentration group, and the weed inhibition rate (%) was determined 14 days after chemical application using the following formula (Math. 1). [formula]
Wagner pots with an area of […] were filled with paddy soil, followed by addition of water and incorporation of chemical fertilizer (N:P:K = 16:16:16), after which puddling was performed. After that, seeds of Echinochloa crus-galli var. formosensis, broad-leaved weeds (Monochoria vaginalis), and Scirpus juncoides were sown at a depth of 0 cm to 1 cm, 30 seeds each. Immediately after sowing, the pots were flooded and a water depth of approximately 3 cm was maintained. Subsequent management was conducted in a glass greenhouse. Immediately thereafter, an emulsifiable concentrate prepared according to Formulation Example 5 using the compound shown below was diluted with water, and a specified amount of the diluted solution was applied by dropper. The amount of the active ingredient to be applied was equivalent to 7.5 g per 10 ares. […]

CC(C)C12CC(OCc3cccc(I)c3)C(C)(CC1Br)O2 (centres unmarked) [1-1365, 5-bromo-2-[(3-iodophenyl)methoxy]-1-methyl-4-isopropyl-7-oxabicyclo[2.2.1]heptane]
≥ 80%: inhibition at 1200 g/ha [1] | inhibition at 1200 g/ha [2] | inhibition at 1200 g/ha [3] | inhibition at 1200 g/ha [4] | inhibition at 1200 g/ha [5] | pest or weed control at 1200 g/ha [6]

CC(C)C12CC(OCc3ccccc3C(F)(F)F)C(C)(CC1Br)O2 (centres unmarked) [1-1367, 5-bromo-1-methyl-4-isopropyl-2-[[2-(trifluoromethyl)phenyl]methoxy]-7-oxabicyclo[2.2.1]heptane]
≥ 80%: inhibition at 1200 g/ha [1] | inhibition at 1200 g/ha [2] | inhibition at 1200 g/ha [3] | inhibition at 1200 g/ha [4] | inhibition at 1200 g/ha [5] | pest or weed control at 1200 g/ha [6]

CC(C)C12CC(OCc3ccccc3C#N)C(C)(CC1Br)O2 (centres unmarked) [1-1370, 2-[(5-bromo-1-methyl-4-isopropyl-7-oxabicyclo[2.2.1]heptan-2-yl)oxymethyl]benzonitrile]
≥ 80%: inhibition at 1200 g/ha [1] | inhibition at 1200 g/ha [2] | inhibition at 1200 g/ha [3] | inhibition at 1200 g/ha [4] | inhibition at 1200 g/ha [5] | pest or weed control at 1200 g/ha [6]

COC(=O)c1ccccc1COC1CC2(C(C)C)OC1(C)CC2Br (centres unmarked) [1-1376, methyl 2-[(5-bromo-1-methyl-4-isopropyl-7-oxabicyclo[2.2.1]heptan-2-yl)oxymethyl]benzoate]
≥ 80%: inhibition at 1200 g/ha [1] | inhibition at 1200 g/ha [2] | inhibition at 1200 g/ha [3] | inhibition at 1200 g/ha [4] | inhibition at 1200 g/ha [5] | pest or weed control at 1200 g/ha [6]

CC(C)C12CC(OCc3c(Cl)cccc3Cl)C(C)(CC1Br)O2 (centres unmarked) [1-1380, 5-bromo-2-[(2,6-dichlorophenyl)methoxy]-1-methyl-4-isopropyl-7-oxabicyclo[2.2.1]heptane]
≥ 80%: inhibition at 1200 g/ha [1] | inhibition at 1200 g/ha [2] | inhibition at 1200 g/ha [3] | inhibition at 1200 g/ha [4] | inhibition at 1200 g/ha [5] | pest or weed control at 1200 g/ha [6]

CC(C)C12CC(OCc3cccc4ccccc34)C(C)(CC1Br)O2 (centres unmarked) [1-1383, 5-bromo-1-methyl-2-(naphthalen-1-ylmethoxy)-4-isopropyl-7-oxabicyclo[2.2.1]heptane]
≥ 80%: inhibition at 1200 g/ha [1] | inhibition at 1200 g/ha [2] | inhibition at 1200 g/ha [3] | inhibition at 1200 g/ha [4] | inhibition at 1200 g/ha [5] | pest or weed control at 1200 g/ha [6]

CC(C)C12CC(OCc3ccc(Cl)cc3Cl)C(C)(CC1Br)O2 (centres unmarked) [1-1385, 5-bromo-2-[(2,4-dichlorophenyl)methoxy]-1-methyl-4-isopropyl-7-oxabicyclo[2.2.1]heptane]
≥ 80%: inhibition at 1200 g/ha [1] | inhibition at 1200 g/ha [2] | inhibition at 1200 g/ha [3] | inhibition at 1200 g/ha [4] | inhibition at 1200 g/ha [5] | pest or weed control at 1200 g/ha [6]

Cc1cccc(C)c1COC1CC2(C(C)C)OC1(C)CC2Br (centres unmarked) [1-1599, 5-bromo-2-[(2,6-dimethylphenyl)methoxy]-1-methyl-4-isopropyl-7-oxabicyclo[2.2.1]heptane]
≥ 80%: inhibition at 1200 g/ha [1] | inhibition at 1200 g/ha [2] | inhibition at 1200 g/ha [3] | inhibition at 1200 g/ha [4] | inhibition at 1200 g/ha [5] | pest or weed control at 1200 g/ha [6]

CC(C)[C@@]12C[C@H](OCc3c(F)cccc3Br)[C@@](C)(C[C@H]1I)O2 [1-1601, (1R,2S,4S,5R)-2-[(2-bromo-6-fluorophenyl)methoxy]-5-iodo-1-methyl-4-isopropyl-7-oxabicyclo[2.2.1]heptane]
≥ 80%: inhibition at 1200 g/ha [1] | inhibition at 1200 g/ha [2] | inhibition at 1200 g/ha [3] | inhibition at 1200 g/ha [4] | inhibition at 1200 g/ha [5] | pest or weed control at 1200 g/ha [6]

CC(C)[C@]12C[C@@H](OCc3ccccc3F)[C@](C)(C[C@@H]1OCC(F)(F)F)O2 [1-1605, (1S,2R,4R,5S)-2-[(2-fluorophenyl)methoxy]-1-methyl-4-isopropyl-5-(2,2,2-trifluoroethoxy)-7-oxabicyclo[2.2.1]heptane]
≥ 80%: inhibition at 1200 g/ha [1] | inhibition at 1200 g/ha [2] | inhibition at 1200 g/ha [3] | inhibition at 1200 g/ha [4] | inhibition at 1200 g/ha [5] | pest or weed control at 1200 g/ha [6]

CC(C)[C@]12C[C@@H](OCc3ccccc3F)[C@](C)(C[C@@H]1OCc1ccccc1)O2 [1-1606, (1S,2R,4R,SS)-2-[(2-fluorophenyl)methoxy]-1-methyl-5-phenylmethoxy-4-isopropyl-7-oxabicyclo[2.2.1]heptane]
≥ 80%: weed inhibition rate [1] | weed inhibition rate [2] | weed inhibition rate [3] | weed inhibition rate [4] | weed inhibition rate [5] | weed inhibition rate [6]

Cc1cccc(C)c1CO[C@H]1C[C@@]2(C(C)C)O[C@]1(C)C[C@H]2Br [1-1608, (1R,2S,4S,5R)-5-bromo-2-[(2,6-dimethylphenyl)methoxy]-1-methyl-4-isopropyl-7-oxabicyclo[2.2.1]heptane]
≥ 80%: inhibition at 1200 g/ha [1] | inhibition at 1200 g/ha [2] | inhibition at 1200 g/ha [3] | inhibition at 1200 g/ha [4] | inhibition at 1200 g/ha [5] | pest or weed control at 1200 g/ha [6]

CC(C)[C@@]12C[C@H](OCc3c(F)cccc3Br)[C@@](C)(C[C@H]1Br)O2 [1-1609, (1R,2S,4S,5R)-5-bromo-2-[(2-bromo-6-fluorophenyl)methoxy]-1-methyl-4-isopropyl-7-oxabicyclo[2.2.1]heptane]
≥ 80%: inhibition at 1200 g/ha [1] | inhibition at 1200 g/ha [2] | inhibition at 1200 g/ha [3] | inhibition at 1200 g/ha [4] | inhibition at 1200 g/ha [5] | pest or weed control at 1200 g/ha [6]

COc1ccccc1CO[C@@H]1C[C@]2(C(C)C)O[C@@]1(C)CC2=O [2-7, (1R,4S,5R)-1-isopropyl-5-((2-methoxybenzyl)oxy)-4-methyl-7-oxabicyclo[2.2.1]heptan-2-one]
≥ 80%: inhibition at 1200 g/ha [3] | inhibition at 1200 g/ha [4] | inhibition at 1200 g/ha [5] | pest or weed control at 1200 g/ha [6] | inhibition at 75 g/ha [7]

CC(C)[C@]12C[C@@H](OCc3ccccc3OC(F)(F)F)[C@](C)(CC1=O)O2 [2-348, (1R,4S,5R)-1-isopropyl-4-methyl-5-((2-(trifluoromethoxy)benzyl)oxy)-7-oxabicyclo[2.2.1]heptan-2-one]
≥ 80%: inhibition at 1200 g/ha [1] | inhibition at 1200 g/ha [2] | inhibition at 1200 g/ha [3] | inhibition at 1200 g/ha [4] | inhibition at 1200 g/ha [5] | pest or weed control at 1200 g/ha [6]
